Reference: CN110483432A, “一类丙烯酸类化合物及其制备方法、药物组合物和用途” (Shanghai Institute of Materia Medica of CAS, priority 2018, dated 2019)

How the values were obtained:
[1] = target: CREB/CRTC2 (Homo sapiens, UniProt P16220+Q53ET0); test: Mammalian two-hybrid (CREB-GAL4-BD / CRTC2-VP16-AD, Gal4-luciferase reporter) test of inhibition of CREB/CRTC2 protein interaction in HEK293 cells; format: cell-based; conditions: 50 μM final concentration; HEK293 two-hybrid activation model (Forsklin); overnight; read-out: relative reporter gene activity (vs solvent control DMSO, set to 100%)
Chain of CREB/CRTC2 (P16220 whole entry, the tested form may be a part): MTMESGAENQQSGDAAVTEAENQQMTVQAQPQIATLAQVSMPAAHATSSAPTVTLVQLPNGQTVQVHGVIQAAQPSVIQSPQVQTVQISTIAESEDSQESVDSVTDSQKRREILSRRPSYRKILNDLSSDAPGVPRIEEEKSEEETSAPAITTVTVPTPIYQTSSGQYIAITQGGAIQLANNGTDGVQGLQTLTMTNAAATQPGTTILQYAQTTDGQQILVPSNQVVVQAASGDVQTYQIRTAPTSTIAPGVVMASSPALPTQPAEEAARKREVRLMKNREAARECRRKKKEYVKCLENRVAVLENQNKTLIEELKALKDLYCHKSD
Chain of CREB/CRTC2 (Q53ET0 whole entry, the tested form may be a part): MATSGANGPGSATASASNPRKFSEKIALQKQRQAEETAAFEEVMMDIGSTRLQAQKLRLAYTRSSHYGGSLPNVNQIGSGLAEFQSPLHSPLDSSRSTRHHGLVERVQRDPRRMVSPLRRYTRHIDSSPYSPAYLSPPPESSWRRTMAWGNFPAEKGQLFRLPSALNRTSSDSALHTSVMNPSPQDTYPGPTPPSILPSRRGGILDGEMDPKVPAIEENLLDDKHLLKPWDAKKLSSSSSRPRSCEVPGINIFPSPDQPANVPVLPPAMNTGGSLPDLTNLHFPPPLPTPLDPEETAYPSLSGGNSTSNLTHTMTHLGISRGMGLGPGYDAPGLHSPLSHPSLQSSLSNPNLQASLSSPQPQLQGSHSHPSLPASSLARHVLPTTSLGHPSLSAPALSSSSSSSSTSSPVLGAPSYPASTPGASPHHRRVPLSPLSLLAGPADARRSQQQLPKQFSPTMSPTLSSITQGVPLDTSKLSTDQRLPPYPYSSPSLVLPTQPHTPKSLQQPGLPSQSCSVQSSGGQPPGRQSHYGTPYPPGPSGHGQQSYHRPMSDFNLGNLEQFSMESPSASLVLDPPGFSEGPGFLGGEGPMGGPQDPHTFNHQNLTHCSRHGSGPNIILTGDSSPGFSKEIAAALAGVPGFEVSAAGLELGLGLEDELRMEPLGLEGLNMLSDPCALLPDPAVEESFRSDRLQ

[2] = Cytotoxicity test in HEK293 cells (CCK8); format: cell-based; conditions: human, overnight, HEK293, CCK8 OD450, read-out: cell viability
[3] = test system: CREB phosphorylation (Ser133) (CREB的磷酸化(Ser133)); test: Western blot of CREB phosphorylation (Ser133) in glucagon signalling pathway; format: cell-based, mouse; conditions: 20 μM, 1 h preincubation, glucagon 100 nM, 30 min, primary hepatocytes or liver tissue

O=C(/C=C/c1cccc(-c2ccccc2)c1)N1C(=O)OC[C@@H]1c1ccccc1 [A57, (S,E)-3-(3-([1,1’-联苯基]-3-基)丙烯酰)-4-苯基噁唑烷-2-酮]
remaining activity at 50 µM [1]: < 30% | viability at 50 µM [2]: ~100% | effect on glucagon-stimulated CREB phosphorylation level [3]: 没有显著的影响
